Measured values published in publication PMC12220852, “An adamantane‐based ligand as a novel chemical tool for thermosensory TRPM8 channel therapeutic modulation” (The Febs Journal, 2025).
Entries after “also recorded” stand apart in the source; their conditions may differ.

Legend:
[1] = test system: WS‐12‐evoked action potentials in primary cultures of murine DRG sensory neurons; experiment: Multielectrode array (MEA): WS-12-evoked action potential firing in DRG sensory neurons; assay type: cell-based; conditions: Mus musculus, Neuron; 0.43 μM compound, 1 μM WS-12, MEA, P2/P1; read-out: inhibition of WS‐12‐induced action potential firing
Description: Complementarily, we examined the effect of compound 23 on WS‐12‐evoked action potentials in primary cultures of murine DRG sensory neurons. For this task, we recorded neuronal excitability using multielectrode arrays (MEAs). […] A protocol of two sequential pulses of WS‐12 interspersed with a washing pulse was applied to correct for channel desensitization (Fig. 7A, upper recording). Compounds 23 and AMTB (0.43 and 10 μM, respectively) were applied 1 min before and during the second WS‐12 pulse (Fig. 7A, second, third, and fourth recordings). As depicted in Fig. 7B, compound 23 virtually abolished action potential firings induced by WS‐12 application in murine primary afferent neurons (≥ 75%). Thus, compound 23 appears to be a potent inhibitor of WS12‐evoked firing frequency, even surpassing the efficacy of AMTB […] (Fig. 7B).
Primary cultures of neonatal dorsal root ganglia were used for multielectrode array (MEA) and patch‐clamp experiments following established methodologies previously described. Neonatal dorsal root ganglia (DRGs) were obtained from Wistar rats (3–5 days old) and were isolated and digested with 0.25% (w/v) collagenase (type IA) in DMEM GlutaMax with 1% (v/v) penicillin/streptomycin (P/S) solution for 1 h at 37 °C in a 5% CO2 Thermo Scientific incubator. […]

[2] = test system: oxaliplatin‐induced peripheral cold allodynia in mice; experiment: Acetone drop test in oxaliplatin-induced cold allodynia; assay type: in vivo, mouse; conditions: 30 and 90 min after administration, oxaliplatin-treated mice
Description: Given the inhibitory activity of compound 23 and the antinociceptive effects of TRPM8 antagonists described in models of oxaliplatin (OXP)‐induced neuropathy, we conducted a behavioral experiment in mice to assess the antinociceptive effects of compound 23 after repeated oxaliplatin administration. Oxaliplatin was intraperitoneally (i.p.) administered every other day for 5 days at 6 mg·kg^−1, reaching a total accumulative dose of 18 mg·kg^−1. […]
The systemic effect of compound 23 was assessed after intraperitoneal administration at 5 mg·kg^−1, dissolved in a solution of 2% Cremophor and 5% DMSO in saline, with a volume of 10 mL·kg^−1. […] Nociceptive sensitivity was evaluated for 30‐ and 90‐min postinjection using the acetone drop test (7 days after the first oxaliplatin dose) and the dry ice test (9 days after the last oxaliplatin dose).
The local effect of compound 23 or its vehicle was assessed 11 days after beginning the oxaliplatin treatment through subcutaneous intraplantar injection of 1 μg compound 23 or vehicle (2% Cremophor and 5% DMSO in saline) in the ventral side of the right hind paw, administered in a volume of 10 μL [66]. […] Nociceptive sensitivity was evaluated 30 and 90 min after the intraplantar injection with the acetone test. […]

O=C(COC(=O)c1ccccc1-c1ccccc1)NC12CC3CC(CC(C3)C1)C2 [Compound 23, 2‐((3S,5S,7S)‐adamantan‐1‐ylamino)‐2‐oxoethyl [1,1′‐biphenyl]‐2‐carboxylate]
inhibition at 0.43 µM [1]: ≥ 75% | effect on response to acetone, local treatment ([2]; 1 μg subcutaneous intraplantar (i.pl.)): alleviated oxaliplatin‐induced cold sensitivity; also recorded: significant antinociceptive effect | effect on licking response to acetone drops, systemic treatment ([2]; 5 mg·kg^−1 i.p., vs vehicle): no significant effect; also recorded: did not significantly affect
